These are literature values, as cited in patent publication US11179330B2, “Doxepin oral transmucosal film” (Xiamen LP Pharmaceutical Co., Ltd., priority 2019, dated 2021).

For data set [1] the following is noted: patients.

Structures can show the parent of a compound that is named as a salt.

As for `CN(C)CCC=C1c2ccccc2COc2ccccc21` [Doxepin hydrochloride], the sleep maintained in data set [1] was 7 to 8 h.
For `CN(C)CCC=C1c2ccccc2COc2ccccc21` [Doxepin], the mean oral bioavailability is given as 13-45%.
